# Test results published in ChEMBL document CHEMBL3885861, “Open TG-GATES”.
# Species on record: Rattus norvegicus
# Experiment: Open TG-GATES - Regimen: Single
# Format: toxicity, organism-based, Sprague-Dawley
# Set-up: regimen Single, gender Male, age 6 weeks
# Conditions: in vivo, sc, 0 mg/kg, route subcutaneous injection, dose 0 ug/Kg, dose level Control; for APTT / Bas / Eos / Fbg / Hb / Ht / Lym / MCH / MCHC / MCV / Mono / Neu / PT / Plat / RBC / Ret / WBC: tissue Blood; for KIDNEY_L / KIDNEY_R / KIDNEY_TOTAL: tissue Kidney; for LIVER: tissue Liver; for A/G / ALP / ALT / AST / BUN / CRE / Ca / Cl / DBIL / GLC / IP / K / LDH / Na / PL / RALB / TBIL / TC / TG / TP / gamma-GTP: tissue Plasma
compound,measurement,setting,value
CC(=O)O.N=C(N)NCCC[C@@H](NC(=O)[C@@H]1CCCN1C(=O)[C@@H]1CSSCCC(=O)N[C@@H](Cc2ccc(O)cc2)C(=O)N[C@@H](Cc2ccccc2)C(=O)N[C@@H](CCC(N)=O)C(=O)N[C@@H](CC(N)=O)C(=O)N1)C(=O)NCC(N)=O [DESMOPRESSIN ACETATE],TERMINAL_BW,3 h,211.5 g
same,APTT,3 h,16.1 s
same,Bas,3 h,0%
same,Eos,3 h,0.8%
same,Fbg,3 h,234.4 mg/dL
same,Hb,3 h,12.9 g/dL
same,Ht,3 h,39.7%
same,Lym,3 h,77.8%
same,MCH,3 h,21.7 pg
same,MCHC,3 h,32.5%
same,MCV,3 h,66.7 fL
same,Mono,3 h,5.8%
same,Neu,3 h,16%
same,PT,3 h,12.1 s
same,Plat,3 h,119.2 x10_4/uL
same,RBC,3 h,595 x10_4/ul
same,Ret,3 h,11.1%
same,WBC,3 h,80.6 x10_2/uL
same,KIDNEY_L,3 h,0.9 g
same,KIDNEY_R,3 h,1 g
same,KIDNEY_TOTAL,3 h,1.9 g
same,LIVER,3 h,10.2 g
same,A/G,3 h,2.1
same,ALP,3 h,1272 IU/L
same,ALT,3 h,37.8 IU/L
same,AST,3 h,66.8 IU/L
same,BUN,3 h,12.2 mg/dL
same,CRE,3 h,0.3 mg/dL
same,Ca,3 h,11.1 mg/dL
same,Cl,3 h,104.2 meq/L
same,DBIL,3 h,0.01 mg/dL
same,GLC,3 h,188.6 mg/dL
same,IP,3 h,9.2 mg/dL
same,K,3 h,4.8 meq/L
same,LDH,3 h,104 IU/L
same,Na,3 h,138.6 meq/L
same,PL,3 h,149.4 mg/dL
same,RALB,3 h,3.7 g/dL
same,TBIL,3 h,0.042 mg/dL
same,TC,3 h,82.6 mg/dL
same,TG,3 h,81.6 mg/dL
same,TP,3 h,5.5 g/dL
same,gamma-GTP,3 h,0.8 IU/L
same,TERMINAL_BW,6 h,204.5 g
same,APTT,6 h,18 s
same,Bas,6 h,0%
same,Eos,6 h,1.2%
same,Fbg,6 h,239 mg/dL
same,Hb,6 h,12.9 g/dL
same,Ht,6 h,39.7%
same,Lym,6 h,75.6%
same,MCH,6 h,21 pg
same,MCHC,6 h,32.5%
same,MCV,6 h,64.6 fL
same,Mono,6 h,8.6%
same,Neu,6 h,14.4%
same,PT,6 h,12.6 s
same,Plat,6 h,109.8 x10_4/uL
same,RBC,6 h,616 x10_4/ul
same,Ret,6 h,8.8%
same,WBC,6 h,104 x10_2/uL
same,KIDNEY_L,6 h,0.9 g
same,KIDNEY_R,6 h,0.9 g
same,KIDNEY_TOTAL,6 h,1.8 g
same,LIVER,6 h,9.2 g
same,A/G,6 h,2.1
same,ALP,6 h,1325 IU/L
same,ALT,6 h,32 IU/L
same,AST,6 h,62 IU/L
same,BUN,6 h,12 mg/dL
same,CRE,6 h,0.4 mg/dL
same,Ca,6 h,11.2 mg/dL
same,Cl,6 h,105.2 meq/L
same,DBIL,6 h,0.01 mg/dL
same,GLC,6 h,199.2 mg/dL
same,IP,6 h,10 mg/dL
same,K,6 h,5 meq/L
same,LDH,6 h,99.4 IU/L
same,Na,6 h,137.8 meq/L
same,PL,6 h,145.6 mg/dL
same,RALB,6 h,3.7 g/dL
same,TBIL,6 h,0.048 mg/dL
same,TC,6 h,85.2 mg/dL
same,TG,6 h,53.6 mg/dL
same,TP,6 h,5.5 g/dL
same,gamma-GTP,6 h,1 IU/L
same,TERMINAL_BW,9 h,199.2 g
same,APTT,9 h,16.6 s
same,Bas,9 h,0%
same,Eos,9 h,1.2%
same,Fbg,9 h,230.8 mg/dL
same,Hb,9 h,12.8 g/dL
same,Ht,9 h,39.7%
same,Lym,9 h,66.6%
same,MCH,9 h,21.2 pg
same,MCHC,9 h,32.2%
same,MCV,9 h,65.8 fL
same,Mono,9 h,14%
same,Neu,9 h,18.2%
same,PT,9 h,12.7 s
same,Plat,9 h,119.2 x10_4/uL
same,RBC,9 h,603.8 x10_4/ul
same,Ret,9 h,9.5%
same,WBC,9 h,99.4 x10_2/uL
same,KIDNEY_L,9 h,0.9 g
same,KIDNEY_R,9 h,0.9 g
same,KIDNEY_TOTAL,9 h,1.8 g
same,LIVER,9 h,8.5 g
same,A/G,9 h,2.1
same,ALP,9 h,1072.6 IU/L
same,ALT,9 h,31 IU/L
same,AST,9 h,62.2 IU/L
same,BUN,9 h,11.6 mg/dL
same,CRE,9 h,0.3 mg/dL
same,Ca,9 h,10.8 mg/dL
same,Cl,9 h,105.8 meq/L
same,DBIL,9 h,0.012 mg/dL
same,GLC,9 h,189.6 mg/dL
same,IP,9 h,10.8 mg/dL
same,K,9 h,5 meq/L
same,LDH,9 h,88.8 IU/L
same,Na,9 h,138.2 meq/L
same,PL,9 h,140 mg/dL
same,RALB,9 h,3.6 g/dL
same,TBIL,9 h,0.046 mg/dL
same,TC,9 h,82.2 mg/dL
same,TG,9 h,52.4 mg/dL
same,TP,9 h,5.3 g/dL
same,gamma-GTP,9 h,0.6 IU/L
same,TERMINAL_BW,24 h,222.1 g
same,APTT,24 h,16.1 s
same,Bas,24 h,0%
same,Eos,24 h,1%
same,Fbg,24 h,241.7 mg/dL
same,Hb,24 h,12.7 g/dL
same,Ht,24 h,39.6%
same,Lym,24 h,75%
same,MCH,24 h,21.3 pg
same,MCHC,24 h,32.2%
same,MCV,24 h,66 fL
same,Mono,24 h,7.8%
same,Neu,24 h,16.2%
same,PT,24 h,12.1 s
same,Plat,24 h,118 x10_4/uL
same,RBC,24 h,599.6 x10_4/ul
same,Ret,24 h,9.9%
same,WBC,24 h,86.4 x10_2/uL
same,KIDNEY_L,24 h,0.9 g
same,KIDNEY_R,24 h,1 g
same,KIDNEY_TOTAL,24 h,1.9 g
same,LIVER,24 h,10.6 g
same,A/G,24 h,2
same,ALP,24 h,1741.4 IU/L
same,ALT,24 h,35.8 IU/L
same,AST,24 h,65.2 IU/L
same,BUN,24 h,16.4 mg/dL
same,CRE,24 h,0.4 mg/dL
same,Ca,24 h,11.2 mg/dL
same,Cl,24 h,104.6 meq/L
same,DBIL,24 h,0 mg/dL
same,GLC,24 h,192.4 mg/dL
same,IP,24 h,8.4 mg/dL
same,K,24 h,5.3 meq/L
same,LDH,24 h,138.4 IU/L
same,Na,24 h,138.6 meq/L
same,PL,24 h,156.2 mg/dL
same,RALB,24 h,3.7 g/dL
same,TBIL,24 h,0.016 mg/dL
same,TC,24 h,82.2 mg/dL
same,TG,24 h,125.2 mg/dL
same,TP,24 h,5.5 g/dL
same,gamma-GTP,24 h,1.2 IU/L
